Structures are written as SMILES. Counter-ions that a name gives are not always drawn.

The test system of one series is eye. Put plainly: Example 3 ophthalmic examination, modified McDonald-Shadduck scoring (tolerability). In kind it is in vivo, New Zealand White rabbits. The method, then: Prior to placement on study, each animal underwent an ophthalmic examination (slitlamp biomicroscopy and indirect ophthalmoscopy). Ocular findings were scored according to a modified McDonald-Shadduck Scoring System and recorded on a standardized data sheet. The acceptance criteria for placement on study were scores of “0” for all variables.
Ophthalmic examination (slit-lamp biomicroscopy only) was performed at baseline (prior to the start of dosing) and on Days 1, 4, and 8. Ocular findings were scored according to a modified McDonald-Shadduck Scoring System. A slit lamp was used to observe conjunctival discharge, […], […], the cornea, the surface area of cornea involvement, pannus, pupillary response, aqueous flare, cellular flare, iris involvement, and the lens. An indirect ophthalmoscope was used to observe the vitreous, vitral hemorrhage, retinal detachment, retinal hemorrhage, and choroidal/retinal inflammation. Animals were prepared for observation by using a solution (atropine, tropicaminde, or phenylephrine) to dilate the pupils.
Conjunctival discharge was defined as a whitish gray precipitate from the eye. Scoring was as follows. • 0=Normal, no discharge. • 1=Discharge above normal and present on the inner portion of the eye but not on the lids or hairs of the eyelids. • 2=Discharge is abundant, easily observed and has collected on the lids and hairs of the eyelids. • 3=Discharge has been flowing over the eyelids so as to wet the hairs substantially on the skin around the eye.
Conjunctival congestion causes the blood vessels of the eye to become enlarged. Scoring was as follows. • 0=Normal, may appear blanched to reddish pink without perilimbal injection (except at the 12:00 and 6:00 positions) with vessels of the palpebral and bulbar conjunctiva easily observed. • 1=A flushed, reddish color predominantly confined to the palpebral conjunctiva with some perilimbal injection but primarily confined to the lower and upper parts of the eye from the 4:00 to the 7:00 and 11:00 to 1:00 positions. • 2=Bright red color of the palpebral conjunctiva with accompanying perilimbal injection covering at least 75% of the circumference of the perilimbal region. • 3=Dark, beefy red color with congestion of both the bulbar and palpebral conjunctiva along with pronounced perilimbal injection and the presence of petechial on the conjunctiva. The petechial generally predominates along the nictitating membrane and upper palprebal conjunctiva.
Conjunctival swelling, defined as swelling of the conjunctiva, was scored as follows. • 0=Normal or no swelling of the conjunctival tissue. • 1=Swelling above normal without eversion of the eyelids (easily discerned by noting upper and lower eyelids are positioned as in the normal eye); swelling generally starts in the lower cul-de-sac near the inner canthus. • 2=Swelling with misalignment of the normal approximation of the lower and upper eyelids; primarily confined to the upper eyelid so that in the initial stages, the misapproximation of the eyelids begins by partial eversion of the upper eyelid. In this state the swelling is confined generally to the upper eyelid with some swelling in the lower cul-de-sac. • 3=Swelling definite with partial eversion of the upper and lower eyelids essentially equivalent. […] It is difficult to retract the lids and observe the perilimbal region.
Iris involvement was observed by checking the iris for hyperemia of the blood vessels. Scoring was as follows. • 0=Normal iris without any hyperemia of the blood vessels. • 1=Some loss of transparency. Only the epithelium and/or the anterior half of the stroma are involved. The underlying structures are clearly visible although some cloudiness may be readily apparent. • 2=Involvement of the entire thickness of the stroma. […]

The nature of series [1]: Example 3 general health observations. The note with it: Example 3, 7 days topical or subcutaneous dosing. Type of series: in vivo, New Zealand White rabbits. The method, then:
Animals were observed within their cages once daily throughout the study period. […] General health observations were recorded daily beginning on Day 1 and continuing throughout the course of the study.

The subject of series [2] is intraocular pressure in patients with diabetic macular edema. Put plainly: Change in intraocular pressure from baseline, Compound 1 BID for 28 days (FIG. 1). The following applies: doses greater than 15 mg BID, 28 Day EOT. In kind it is in vivo, human. The method, then:
The difference in IOP was determined at the end of the trial, which was 28 days after treatment began (28 Day EOT). Changes in IOP were determined both in the study eye and the fellow eye.

[3] abbreviates: Day 1, Group 2 (0.45 mg/eye topical BID), N=5.

Take `COC(=O)N[C@@H](Cc1ccccc1)C(=O)N[C@@H](Cc1ccc(NS(=O)(=O)O)cc1)c1csc(-c2cccs2)n1` [Compound 1 sodium salt]: the “animals with mild conjunctival congestion (scores=1)” value is reported as “five” with eye (setting [3]); “two” in the series with eye (Day 1, Group 3 (1.2 mg/eye topical BID), N=5); “one” in the series with eye (Day 1, Group 4 (1.2 mg/eye topical QD), N=5); “three” in the series with eye (Day 1, Group 5 (10 mg/kg SC BID), N=5); “two” with eye (Day 4, Group 2 (0.45 mg/eye topical BID), N=5); “two” with eye (Day 4, Group 3 (1.2 mg/eye topical BID), N=5). Further, the “animals with mild conjunctival congestion (scores=1)” value in the series with eye (Day 4, Group 4 (1.2 mg/eye topical QD), N=5) is recorded as “one”; in the series on eye (Day 4, Group 5 (10 mg/kg SC BID), N=5), “none”. The “animals with mild conjunctival swelling” value with eye (setting [3]) is “one”. Moreover, the ocular anomalies result in the series on eye (Day 8, all groups) was “No ocular anomalies”. Also, in the series with eye (Example 3), the “relation of mild conjunctival congestion to test article” value is recorded as “unrelated to the test article”. Further, the “adverse effects on general health” value in series [1] is on record as “No adverse effects”.
For the compound `COC(=O)N[C@@H](Cc1ccccc1)C(=O)N[C@@H](Cc1ccc(NS(=O)(=O)O)cc1)c1csc(-c2cccs2)n1` [Compound 1], the “change in IOP relative to pre-treatment baseline” value in series [2] is “decreased IOP”.

The values are drawn from patent US10952992B2, “Methods of treating intraocular pressure with activators of Tie-2” (Aerpio Pharmaceuticals, Inc., priority 2015, dated 2021).
